Source: ChEMBL document CHEMBL1932937, “Inhibition of noroviruses by piperazine derivatives” (Bioorg Med Chem Lett, 2012)

Tests used:
Norovirus = assay: Antiviral activity against Norovirus infected in human HG23 cells assessed as inhibition of viral replication after 24 hrs; format: functional; details: HG23, 24 h, read-out: ED50 (the source's name)
[1] = Cytotoxicity against human HG23 cells after 48 hrs; format: cell-based; details: read-out: TD50
[2] = Therapeutic index, ratio of TD50 for HG23 cells to ED50 for Norovirus infected in human HG23 cells; format: cell-based; details: read-out: Ratio TD50/ED50

Compound	EC50 (Norovirus)	CC50 at 48 h [1]	selectivity ratio [2]
COc1ccc(Cn2cc(C(=O)N3CCN(Cc4ccccc4)CC3)nn2)cc1	8.5 µM	62.5 µM	
O=C(N1CCOCC1)N1CCN(Cc2ccccc2)CC1	> 20 µM		
O=C(c1ccccc1Oc1ccccc1)N1CCN(Cc2ccccc2)CC1	8.2 µM	18.5 µM	
Oc1cccc(CN2CCN(Cc3cccc(Oc4ccccc4)c3)CC2)c1	> 20 µM		
O=C1CC(C(=O)N2CCN(Cc3ccccc3)CC2)CN1Cc1ccco1 (stereo not drawn)	> 20 µM		
O=C(c1ccc(O)cc1)N1CCN(Cc2cccc(Oc3ccccc3)c2)CC1	> 20 µM		
O=C(c1ccc(Oc2ccccc2)cc1)N1CCN(Cc2cccc(Oc3ccccc3)c2)CC1	3.8 µM	23.5 µM	
COc1ccc(CN2CC(C(=O)N3CCN(Cc4ccccc4)CC3)CC2=O)cc1 (stereo not drawn)	7.2 µM	155 µM	
COc1ccc(CC(=O)N2CCN(Cc3ccccc3)CC2)cc1	> 20 µM		
CCCOc1ccc(C(=O)N2CCN(Cc3ccccc3)CC2)cc1	7.8 µM	95.3 µM	
O=C(c1ccco1)N1CCN(Cc2ccccc2)CC1	> 20 µM		
O=C(c1cccc(F)c1)N1CCN(Cc2ccccc2)CC1	> 20 µM		
N#Cc1ccc(C(=O)N2CCN(Cc3cccc(Oc4ccccc4)c3)CC2)cc1	> 20 µM		
N#Cc1ccc(S(=O)(=O)N2CCN(Cc3cccc(Oc4ccccc4)c3)CC2)cc1	12.5 µM	119 µM	
O=C(c1cn(CSc2ccccc2)nn1)N1CCN(Cc2ccccc2)CC1	> 20 µM		
O=C(c1ccc(Oc2ccccc2)cc1)N1CCN(Cc2ccccc2)CC1	> 20 µM		
O=C(c1cccc(Oc2ccccc2)c1)N1CCN(Cc2ccccc2)CC1	2.8 µM	11.4 µM	
O=C(Cc1ccc(Cl)cc1)N1CCN(Cc2cccc(Oc3ccccc3)c2)CC1	> 20 µM		
COC(=O)c1ccc(Cn2cc(C(=O)N3CCN(Cc4ccccc4)CC3)nn2)cc1	> 20 µM		
O=C(c1cccc(Cl)c1)N1CCN(Cc2ccccc2)CC1	> 20 µM		
O=C(c1cn(Cc2ccc(F)cc2)nn1)N1CCN(Cc2ccccc2)CC1	> 20 µM		
O=C(c1cn(Cc2cccc(F)c2)nn1)N1CCN(Cc2ccccc2)CC1	> 20 µM		
CC(C)Oc1ccc(C(=O)N2CCN(Cc3cccc(Oc4ccccc4)c3)CC2)cc1	> 20 µM		
CC(C)Oc1ccc(CN2CCN(Cc3cccc(Oc4ccccc4)c3)CC2)cc1	8.5 µM	31.5 µM	
O=C1CC(C(=O)N2CCN(Cc3ccccc3)CC2)CN1CCc1ccccc1 (stereo not drawn)	> 20 µM		
O=C(c1cccc(Oc2ccccc2)c1)N1CCN(Cc2cccc(Oc3ccccc3)c2)CC1	5.5 µM	15.6 µM	
c1ccc(Oc2cccc(CN3CCN(Cc4cccc(Oc5ccccc5)c4)CC3)c2)cc1	5.6 µM	75.4 µM	
CCCCS(=O)(=O)N1CCN(Cc2cccc(Oc3ccccc3)c2)CC1	6.7 µM	121 µM	18
COc1ccc(C(=O)N2CCN(Cc3cccc(Oc4ccccc4)c3)CC2)cc1	4.5 µM	25.4 µM	
O=C1CC(C(=O)N2CCN(Cc3ccccc3)CC2)CN1Cc1ccccc1 (stereo not drawn)	> 20 µM		
